Test results reported in patent US11420958B2, “Aryl and heteroaryl substituted indole compounds” (BRISTOL-MYERS SQUIBB COMPANY, priority 2017, dated 2022).

Legend:
Assay type in all cases: cell-based
human TLR7 = human TLR7 (Homo sapiens (Human), UniProt Q9NYK1); test: TLR7 inhibition reporter assay (HEK-Blue, SEAP); conditions: HEK-Blue cells overexpressing human TLR7, gardiquimod 7.5 μM stimulation
Method: (§1) TLR7/8/9 Inhibition Reporter Assays
(§2) HEK-Blue™-cells (Invivogen) overexpressing human TLR7, TLR8 or TLR9 receptors were used for screening inhibitors of these receptors using an inducible SEAP (secreted embryonic alkaline phosphatase) reporter gene under the control of the IFN-β minimal promoter fused to five NF-κc Band AP-1-binding sites. Briefly, cells are seeded into Greiner 384 well plates (15000 cells per well for TLR7, 20,000 for TLR8 and 25,000 for TLR9) and then treated with test compounds in DMSO to yield a final dose response concentration range of 0.05 nM-50 μM. After a 30 minute compound pre-treatment at room temperature, the cells are then stimulated with a TLR7 ligand (gardiquimod at a final concentration of 7.5 μM), TLR8 ligand (R848 at a final concentration of 15.9 μM) or TLR9 ligand (ODN2006 at final concentration of 5 nM) to activate NF-κB and AP-1 which induce the production of SEAP. After a 22 hour incubation at 37° C., 5% CO2, SEAP levels are determined with the addition of HEK-Bue™ Detection reagent (Invivogen), a cell culture medium that allows for detection of SEAP, according to manufacturer's specifications. The percent inhibition is determined as the % reduction in the HEK-Blue signal present in wells treated with agonist plus DMSO alone compared to wells treated with a known inhibitor.

human TLR8 = human TLR8 (Homo sapiens (Human), UniProt Q9NR97); test: TLR8 inhibition reporter assay (HEK-Blue, SEAP); conditions: HEK-Blue cells overexpressing human TLR8, R848 15.9 μM stimulation
Method: as §1, §2

human TLR9 = human TLR9 (Homo sapiens (Human), UniProt Q9NR96); test: TLR9 inhibition reporter assay (HEK-Blue, SEAP); conditions: HEK-Blue cells overexpressing human TLR9, ODN2006 5 nM stimulation
Method: as §1, §2

human TLR7, sequence (Q9NYK1 27-1049): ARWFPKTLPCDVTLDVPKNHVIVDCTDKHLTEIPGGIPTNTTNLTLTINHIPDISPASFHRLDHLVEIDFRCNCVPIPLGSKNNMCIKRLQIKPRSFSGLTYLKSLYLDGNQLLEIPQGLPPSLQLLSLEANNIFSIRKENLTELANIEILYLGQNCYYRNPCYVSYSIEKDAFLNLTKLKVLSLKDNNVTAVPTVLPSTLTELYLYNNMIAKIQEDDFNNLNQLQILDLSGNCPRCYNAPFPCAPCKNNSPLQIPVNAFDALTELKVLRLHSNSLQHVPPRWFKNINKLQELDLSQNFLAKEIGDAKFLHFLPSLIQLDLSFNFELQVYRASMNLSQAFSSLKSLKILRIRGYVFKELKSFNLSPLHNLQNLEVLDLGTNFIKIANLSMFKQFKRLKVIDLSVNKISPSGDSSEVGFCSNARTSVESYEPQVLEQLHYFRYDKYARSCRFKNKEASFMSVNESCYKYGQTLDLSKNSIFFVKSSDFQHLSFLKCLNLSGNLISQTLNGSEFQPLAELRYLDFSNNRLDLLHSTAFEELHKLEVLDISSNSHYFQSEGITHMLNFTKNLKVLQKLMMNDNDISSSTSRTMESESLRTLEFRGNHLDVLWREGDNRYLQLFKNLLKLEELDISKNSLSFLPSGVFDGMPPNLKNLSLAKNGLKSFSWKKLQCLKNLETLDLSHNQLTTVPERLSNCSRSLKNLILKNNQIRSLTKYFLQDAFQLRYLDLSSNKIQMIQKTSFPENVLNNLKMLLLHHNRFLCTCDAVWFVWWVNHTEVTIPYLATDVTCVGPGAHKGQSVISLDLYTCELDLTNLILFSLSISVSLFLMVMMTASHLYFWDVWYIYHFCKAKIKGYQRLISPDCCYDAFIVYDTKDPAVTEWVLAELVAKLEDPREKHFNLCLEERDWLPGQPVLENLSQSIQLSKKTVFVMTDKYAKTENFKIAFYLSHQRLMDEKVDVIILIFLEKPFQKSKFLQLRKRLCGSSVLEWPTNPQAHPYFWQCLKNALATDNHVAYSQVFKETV
human TLR8, sequence (Q9NR97 27-1041): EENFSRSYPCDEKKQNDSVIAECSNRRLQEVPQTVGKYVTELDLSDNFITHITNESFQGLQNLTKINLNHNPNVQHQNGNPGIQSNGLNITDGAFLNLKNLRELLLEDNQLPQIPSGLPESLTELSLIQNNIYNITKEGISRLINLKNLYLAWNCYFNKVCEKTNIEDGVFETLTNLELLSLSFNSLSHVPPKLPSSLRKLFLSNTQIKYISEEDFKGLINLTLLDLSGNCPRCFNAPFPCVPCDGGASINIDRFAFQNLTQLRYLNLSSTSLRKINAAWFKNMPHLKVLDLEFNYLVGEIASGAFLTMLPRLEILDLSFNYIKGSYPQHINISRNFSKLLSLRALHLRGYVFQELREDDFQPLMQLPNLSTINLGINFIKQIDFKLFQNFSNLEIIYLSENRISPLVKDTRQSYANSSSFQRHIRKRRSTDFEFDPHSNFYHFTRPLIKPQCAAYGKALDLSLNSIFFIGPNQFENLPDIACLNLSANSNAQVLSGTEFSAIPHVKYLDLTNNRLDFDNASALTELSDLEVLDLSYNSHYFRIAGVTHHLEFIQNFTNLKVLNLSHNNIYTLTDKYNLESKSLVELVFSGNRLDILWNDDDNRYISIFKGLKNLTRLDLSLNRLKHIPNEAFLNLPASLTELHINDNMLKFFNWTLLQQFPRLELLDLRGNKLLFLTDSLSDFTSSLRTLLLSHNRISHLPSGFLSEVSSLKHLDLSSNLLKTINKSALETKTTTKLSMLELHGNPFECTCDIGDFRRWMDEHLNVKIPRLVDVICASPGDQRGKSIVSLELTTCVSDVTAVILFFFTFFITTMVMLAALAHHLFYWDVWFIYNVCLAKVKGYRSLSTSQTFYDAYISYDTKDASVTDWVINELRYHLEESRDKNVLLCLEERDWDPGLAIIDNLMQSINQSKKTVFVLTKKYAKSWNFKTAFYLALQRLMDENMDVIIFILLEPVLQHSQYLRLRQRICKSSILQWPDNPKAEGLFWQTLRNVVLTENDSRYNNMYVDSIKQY
human TLR9, sequence (Q9NR96 26-1032): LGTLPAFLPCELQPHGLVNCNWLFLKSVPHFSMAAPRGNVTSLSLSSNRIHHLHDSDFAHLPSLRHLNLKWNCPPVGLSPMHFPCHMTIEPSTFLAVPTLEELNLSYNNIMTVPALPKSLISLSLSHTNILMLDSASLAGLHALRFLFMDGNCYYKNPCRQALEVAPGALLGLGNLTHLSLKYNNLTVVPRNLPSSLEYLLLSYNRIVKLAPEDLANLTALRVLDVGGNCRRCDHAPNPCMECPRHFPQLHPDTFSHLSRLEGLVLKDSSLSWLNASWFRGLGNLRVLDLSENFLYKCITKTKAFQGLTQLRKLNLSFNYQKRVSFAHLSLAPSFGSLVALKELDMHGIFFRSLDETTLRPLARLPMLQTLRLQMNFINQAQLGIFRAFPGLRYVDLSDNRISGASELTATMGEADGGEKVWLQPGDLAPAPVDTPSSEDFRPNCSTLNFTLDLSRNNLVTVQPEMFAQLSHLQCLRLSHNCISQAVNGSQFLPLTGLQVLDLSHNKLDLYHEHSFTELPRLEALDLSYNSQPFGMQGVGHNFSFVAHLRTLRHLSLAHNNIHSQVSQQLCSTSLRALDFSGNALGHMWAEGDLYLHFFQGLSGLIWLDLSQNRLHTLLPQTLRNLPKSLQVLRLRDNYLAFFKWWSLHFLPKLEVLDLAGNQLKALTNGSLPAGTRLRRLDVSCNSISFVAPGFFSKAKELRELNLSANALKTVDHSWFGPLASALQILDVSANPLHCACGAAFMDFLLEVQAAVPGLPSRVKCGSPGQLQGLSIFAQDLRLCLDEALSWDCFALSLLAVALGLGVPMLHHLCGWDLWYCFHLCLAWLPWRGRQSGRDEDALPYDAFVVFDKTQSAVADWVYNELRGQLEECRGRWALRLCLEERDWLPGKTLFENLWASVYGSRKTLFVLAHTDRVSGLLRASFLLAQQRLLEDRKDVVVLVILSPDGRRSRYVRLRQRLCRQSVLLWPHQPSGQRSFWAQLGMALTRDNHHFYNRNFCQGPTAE

SMILES	IC50 (human TLR7) [nM]	IC50 (human TLR8) [nM]	IC50 (human TLR9) [nM]
COc1ccc(-c2[nH]c3ccc(-c4cccc(C(=O)N5CCNCC5)c4)cc3c2C(C)C)cc1OC [Example 1, 2-(3,4-dimethoxyphenyl)-5-[3-(piperazine-1-carbonyl)phenyl]-3-(propan-2-yl)-1H-indole]	107	9	2060
COc1ccc(-c2[nH]c3ccc(-c4nnc(C5CCN(C(=O)CN(C)C)CC5)o4)cc3c2C(C)C)cc1OC [Example 3, 1-(4-{5-[2-(3,4-dimethoxyphenyl)-3-(propan-2-yl)-1H-indol-5-yl]-1,3,4-oxadiazol-2-yl}piperidin-1-yl)-2-(dimethylamino)ethan-1-one]	28	13	1230
COc1ccc(-c2[nH]c3ccc(-c4nnc(C5CCN(C(C)C)CC5)o4)cc3c2C(C)C)cc1OC [Example 4, 2-(3,4-dimethoxyphenyl)-3-(propan-2-yl)-5-{5-[1-(propan-2-yl)piperidin-4-yl]-1,3,4-oxadiazol-2-yl}-1H-indole]	78	9	979
COc1ccc(-c2[nH]c3ccc(-c4cccc(C(=O)N5CCCN(C)CC5)c4)cc3c2C(C)C)cc1OC [Example 5, (3-(2-(3,4-dimethoxyphenyl)-3-isopropyl-1H-indol-5-yl)phenyl)(4-methyl-1,4-diazepan-1-yl)methanone]	121	6.8	3290
COc1ccc(-c2[nH]c3ccc(-c4cccc(C(=O)N[C@H]5CC[C@H](N)CC5)c4)cc3c2C(C)C)cc1OC [Example 6]	121	42	2780
COc1ccc(-c2[nH]c3ccc(-c4cccc(C(=O)N[C@H]5CC[C@H](C(C)(C)O)CC5)c4)cc3c2C(C)C)cc1OC [Example 7, 3-(2-(3,4-dimethoxyphenyl)-3-isopropyl-1H-indol-5-yl)-N-((1r,4r)-4-(2-hydroxypropan-2-yl)cyclohexyl)benzamide]	1790	19	> 50000
COc1ccc(-c2[nH]c3ccc(-c4cccc(C(=O)NC5CCN(C(C)C)CC5)c4)cc3c2C(C)C)cc1OC [Example 8, 3-(2-(3,4-dimethoxyphenyl)-3-isopropyl-1H-indol-5-yl)-N-(1-isopropylpiperidin-4-yl)benzamide]	114	29	1810
COc1ccc(-c2[nH]c3ccc(-c4cccc(C(=O)N5CC6CNCC6C5)c4)cc3c2C(C)C)cc1OC (stereo not drawn) [Example 9, (3-(2-(3,4-dimethoxyphenyl)-3-isopropyl-1H-indol-5-yl)phenyl)(hexahydropyrrolo[3,4-c]pyrrol-2(1H)-yl)methanone]	108	4.1	744
COc1ccc(-c2[nH]c3ccc(-c4ccnc(C(=O)N5CCCN(C)CC5)c4)cc3c2C(C)C)cc1OC [Example 10, (4-(2-(3,4-dimethoxyphenyl)-3-isopropyl-1H-indol-5-yl)pyridin-2-yl)(4-methyl-1,4-diazepan-1-yl)methanone]	35	6	673
COc1ccc(-c2[nH]c3ccc(-c4cccc(C(=O)N5CCN(C(=O)C6CCCO6)CC5)c4)cc3c2CC(F)(F)F)cc1OC (stereo not drawn) [Example 33, (4-(3-(2-(3,4-dimethoxyphenyl)-3-(2,2,2-trifluoroethyl)-1H-indol-5-yl)benzoyl)piperazin-1-yl)(tetrahydrofuran-2-yl)methanone]	1330	53	
CC(C)c1c(-c2ccc3nccn3c2)[nH]c2ccc(-c3nnc([C@@H]4CCCNC4)o3)cc12 [Example 244, (R)-2-(2-(imidazo[1,2-a]pyridin-6-yl)-3-isopropyl-1H-indol-5-yl)-5-(piperidin-3-yl)-1,3,4-oxadiazole]	153	422	
Cc1cc(-c2[nH]c3ccc(-c4nc(C(=O)NC5CCN(C(C)C)CC5)co4)cc3c2C(C)C)cc(C)n1 [Example 249, 2-(2-(2,6-dimethylpyridin-4-yl)-3-isopropyl-1H-indol-5-yl)-N-(1-isopropylpiperidin-4-yl)oxazole-4-carboxamide]	27	7.5	
Cc1cc(-c2[nH]c3ccc(-c4ccc(N5CCN(C(C)C)CC5)nc4)cc3c2C(C)C)ccn1 [Example 302, 3-isopropyl-5-(6-(4-isopropylpiperazin-1-yl)pyridin-3-yl)-2-(2-methylpyridin-4-yl)-1H-indole]		28	2320
Cc1cc(-c2[nH]c3ccc(-c4nc5c(s4)CCNC5)cc3c2C(C)C)cc(C)n1 [Example 310, 2-(2-(2,6-dimethylpyridin-4-yl)-3-isopropyl-1H-indol-5-yl)-4,5,6,7-tetrahydrothiazolo[4,5-c]pyridine]	3.4		647
Cc1cc(-c2[nH]c3ccc(-c4ccc(NC(=O)C5CC(=O)N(C)C5)nc4)cc3c2C(C)C)ccn1 (stereo not drawn) [Example 332, N-(5-(3-isopropyl-2-(2-methylpyridin-4-yl)-1H-indol-5-yl)pyridin-2-yl)-1-methyl-5-oxopyrrolidine-3-carboxamide]	14	1.9	

Continued, values first:

IC50 (human TLR7) [nM]	IC50 (human TLR8) [nM]	IC50 (human TLR9) [nM]	SMILES
2530	230		CCc1c(-c2ccc(OC)c(OC)c2)[nH]c2ccc(-c3cccc(CN4CCN(C)CC4)c3)cc12 [Example 368, 2-(3,4-dimethoxyphenyl)-3-ethyl-5-(3-((4-methylpiperazin-1-yl)methyl)phenyl)-1H-indole]
250	13		CC(C)c1c(-c2ccnc3[nH]ncc23)[nH]c2ccc(-c3ccc(C(C)N4CCOCC4)cc3)cc12 (stereo not drawn) [Example 372, 4-(1-(4-(3-isopropyl-2-(1H-pyrazolo[3,4-b]pyridin-4-yl)-1H-indol-5-yl)phenyl)ethyl)morpholine]
	73	4360	COc1ccc(-c2[nH]c3ccc(-c4ccc(N5CCN(CC(C)C)CC5)nc4)cc3c2C(C)C)cc1OC [Example 391, 2-(3,4-dimethoxyphenyl)-5-(6-(4-isobutylpiperazin-1-yl)pyridin-3-yl)-3-isopropyl-1H-indole]
	> 50000	290	COc1ccc(-c2[nH]c3ccc(-c4ccc(-c5cncc6ccccc56)cc4)cc3c2C(C)C)cc1OC [Example 407, 4-(4-(2-(3,4-dimethoxyphenyl)-3-isopropyl-1H-indol-5-yl)phenyl)isoquinoline]
4100	662		COc1ccc(-c2ccc3[nH]c(-c4ccnc5[nH]ncc45)c(C(C)C)c3c2)cn1 [Example 422, 4-(3-isopropyl-5-(6-methoxypyridin-3-yl)-1H-indol-2-yl)-1H-pyrazolo[3,4-b]pyridine]
1400		8760	COc1ccc(-c2[nH]c3ccc(-c4ccnc(N5CCN(Cc6ccsc6)CC5)c4)cc3c2C(C)C)cc1OC [Example 423, 2-(3,4-dimethoxyphenyl)-3-isopropyl-5-(2-(4-(thiophen-3-ylmethyl)piperazin-1-yl)pyridin-4-yl)-1H-indole]
2590		> 50000	COc1ccc(-c2[nH]c3ccc(-c4ccnc(N5CCN(CCC(F)(F)F)CC5)c4)cc3c2C(C)C)cc1OC [Example 424, 2-(3,4-dimethoxyphenyl)-3-isopropyl-5-(2-(4-(3,3,3-trifluoropropyl)piperazin-1-yl)pyridin-4-yl)-1H-indole]
1490		7070	COc1ccc(-c2[nH]c3ccc(-c4ccnc(N5CCN(CCC(C)O)CC5)c4)cc3c2C(C)C)cc1OC (stereo not drawn) [Example 425, 4-(4-(4-(2-(3,4-dimethoxyphenyl)-3-isopropyl-1H-indol-5-yl)pyridin-2-yl)piperazin-1-yl)butan-2-ol]
1280		> 50000	COc1ccc(-c2[nH]c3ccc(-c4cnc(N5CCN(Cc6ccsc6)CC5)nc4)cc3c2C(C)C)cc1OC [Example 429, 2-(3,4-dimethoxyphenyl)-3-isopropyl-5-(2-(4-(thiophen-3-ylmethyl)piperazin-1-yl)pyrimidin-5-yl)-1H-indole]
1340		11900	COc1ccc(-c2[nH]c3ccc(-c4cnc(N5CCN(Cc6cccn6C)CC5)nc4)cc3c2C(C)C)cc1OC [Example 430, 2-(3,4-dimethoxyphenyl)-3-isopropyl-5-(2-(4-((1-methyl-1H-pyrrol-2-yl)methyl)piperazin-1-yl)pyrimidin-5-yl)-1H-indole]
145		2110	COc1ccc(-c2[nH]c3ccc(-c4cnc(N5CCN(CC(C)C)CC5)n4C)cc3c2C(C)C)cc1OC [Example 433, 2-(3,4-dimethoxyphenyl)-5-(2-(4-isobutylpiperazin-1-yl)-1-methyl-1H-imidazol-5-yl)-3-isopropyl-1H-indole]
896		42100	COc1ccc(-c2[nH]c3ccc(-c4cnc(Cl)n4C)cc3c2C(C)C)cc1OC [Example 437, 5-(2-chloro-1-methyl-1H-imidazol-5-yl)-2-(3,4-dimethoxyphenyl)-3-isopropyl-1H-indole]
